Patent US5844000A, “Propenone oxime ethers and pharmaceutical compositions containing them” (Sanofi, priority 1997, dated 1998)
Entries after “also recorded” stand apart in the source; their conditions may differ. One block for each compound: values may come before it.

Assays:
[1] = Biotransformation: excreted radioactivity (urine and feces) as SR 46349 and metabolites in humans; assay type: in vivo, human; conditions: for percentage of excreted radioactivity: urine and feces, excreted (recovered) radioactivity
Description: Excretion-balance, plasma and blood pharmacokinetics of radioactivity, and clinical safety/tolerance were reported.
The capsule was dropped directly in the mouth and swallowed with 150 mL of tap water at about 8:00 AM. Ingestion of the capsule was verified by inspection of the oral cavity of each subject.
A representative pool of urine was prepared for each subject by mixing aliquots from each collection interval in proportion to the percent of radioactivity present in each collection interval.
A representative pool of fecal homogenate was prepared for each subject by mixing aliquots from each collection interval in proportion to the percent of radioactivity present in each collection interval.
(§1) Metabolite quantitation was conducted with an HP1090 HPLC system (Hewlett Packard, Wilmington, Del. HPLC eluant was fraction collected (0.33 mL/fraction using a FOXY™ Model 200 fraction collector; Isco, Lincoln, Nebr.). Fractions were mixed with 5 mL of Biofluor cocktail and then counted using a Tri-Carb 2700TR liquid scintillation counter (Packard, Meriden, Conn.).
Sample extraction and HPLC column recoveries were calculated using measured radioactivity in samples, sample extracts and HPLC eluants. Recoveries of 100% were based on the expected amount of radioactivity in a sample prior to extraction or HPLC analysis.
Urinary and fecal metabolites are expressed as a percentage of the radioactivity in each matrix and as a percentage of excreted (recovered) radioactivity. Values were corrected for total experimental recoveries.

[2] = test system: 5-HT2; conditions: result in words; U.S. Pat. No. 5,166,416; cited from earlier work
[3] = Plasma metabolite profiling in humans; assay type: in vivo, human; conditions: result in words; time points up to 48 hr
Description: (§2) The objective of this study was to quantitate the biotransformation of ^14 C-SR 46349B in humans. Six healthy male volunteers were treated orally with a single 30 mg dose of ^14 C-SR 46349B (corresponding to 35.4 mg of the salified compound), labeled on the C-1 position of the propenyl chain with ^14 C (1.375 MBq). Excretion-balance, plasma and blood pharmacokinetics of radioactivity, and clinical safety/tolerance were reported. Plasma, urine and fecal homogenates were analyzed for quantitation and identification of SR 46349B and metabolites.
Subjects were fasted overnight prior to the morning of ^14 C-SR 46349B administration. […]
Pools of plasma for each collection time were prepared by mixing equal amounts of plasma from all subjects. This made available enough plasma at each time point to quantitate metabolites. […] Due to low amounts of radioactivity in plasma, five concentrated extracts from the same time point were combined. […] Pools for each collection time were analyzed in triplicate.
as §1, with “Conn.). […]” for “Conn.).”

[4] = Human pharmacokinetics: plasma concentration of SR 46349 (HPLC-UV) after single oral dose of 14C-SR 46349B; assay type: in vivo
Description: as §2
(§3) Subjects were fasted overnight prior to the morning of ^14 C-SR 46349B administration. All subjects received a single oral 30 mg dose of ^14 C-SR 46349B (corresponding to 35.4 mg of the […] compound) in a single gelatin capsule. The capsule was dropped directly in the mouth and swallowed with 150 mL of tap water at about 8:00 AM. Ingestion of the capsule was verified by inspection of the oral cavity of each subject.
(§4) Blood samples were obtained at 0, 0.5, 1, 1.5, 2, 2.5, 3, 4, 6, 8, 10, 12, 16, 24, 36, 48, 72, 96, 120, 144, 168, 192, 216, 240, 264, 288 and 312 hr after dosing. For each sample, approximately 7 mL of blood (22 mL at 2, 3, 4, 8, 12, 24 and 48 hrs after dosing) was drawn into polypropylene collection tubes containing lithium heparin (as an anticoagulant). Following the removal of 1 mL of blood for radiocarbon analysis, samples were centrifuged (within 30 min) at 2000-3000×g for 10 min and the plasma transferred into polypropylene transport tubes. All samples were stored frozen (≤-18° C.) until analysis.
The concentration of SR 46349 in plasma samples was determined using a validated HPLC method with UV detection at 320 nm. […] The samples were dried at room temperature and resuspended in 0.15 mL of mobile phase and 0.05 mL was analyzed. […]
Unknown concentrations of SR 46349 were quantified by reference to a 1/y^2 weighted regression analysis of the peak-area ratio (SR 46349/internal standard) versus concentration of the calibration curve standards. […]
Model-independent pharmacokinetic parameters for plasma concentrations of SR 46349 were calculated for each subject. The maximum observed plasma concentration (Cmax) of SR 46349 and its corresponding time (tmax) were determined by visual inspection of individual concentration-time profiles. Half-life (t 1/2) was calculated from the ratio of ln(2)/λZ, where λZ is the regressed slope of the terminal phase. The area under the plasma concentration of SR 46349-versus-time-curves (AUC(0-t)) was calculated using the trapezoidal rule. AUC was calculated for the sum of AUC(0-t) and Cp(1)/λZ wherein Cp(1) is the last measurable concentration time point. […]

[5] = Human pharmacokinetics: plasma radioactivity after single oral dose of 14C-SR 46349B; assay type: in vivo
Description: as §2, §3, §4
Aliquots of plasma and urine samples were added directly to Ready-Safe scintillant (9 mL), hand shaken for a few seconds and left for at least 2 hours prior to counting. Aliquots of fecal homogenates were weighed in a Combusto-Cone fitted with a CombustoPad. The samples were allowed to dry overnight before combustion in a Packard Sample Oxidizer, Model 307 (Meriden, Conn.). Carbo-Sorb and Permafluor E^+ were used as scintillants (10 mL). Samples mixed with scintillant were left for at least 4 hours prior to counting. Radioactivity assays were performed with a Packard Instruments Tri-Carb, Model 1600TR Liquid Scintillation System. The LOQ was set at 12 cpm above background.

[6] = Urinary excretion and urinary metabolite profiling in humans; assay type: in vivo, human; conditions: up to 336 hr post-dose, % of administered dose
Description: as §2
(§5) Subjects were fasted overnight prior to the morning of ^14 C-SR 46349B administration. All subjects received a single oral 30 mg dose of ^14 C-SR 46349B (corresponding to 35.4 mg of the unsalified compound) in a single gelatin capsule. […]
(§6) Aliquots of plasma and urine samples were added directly to Ready-Safe scintillant (9 mL), hand shaken for a few seconds and left for at least 2 hours prior to counting. […] Radioactivity assays were performed with a Packard Instruments Tri-Carb, Model 1600TR Liquid Scintillation System. […]
A representative pool of urine was prepared for each subject by mixing aliquots from each collection interval in proportion to the percent of radioactivity present in each collection interval. Pools were prepared to represent approximately 95% of total collected urinary radioactivity. […]

[7] = Fecal excretion and fecal metabolite profiling in humans; assay type: in vivo, human; conditions: up to 276 hr post-dose, % of administered dose
Description: as §2, §5, §6
A representative pool of fecal homogenate was prepared for each subject by mixing aliquots from each collection interval in proportion to the percent of radioactivity present in each collection interval. Pools were prepared to represent approximately 95% of total collected fecal radioactivity. […]

percentage of excreted radioactivity [1]: approximately 23%
SMILES: C[N+](C)([O-])CCON=C(/C=C/c1ccc(O)cc1)c1ccccc1F [H22 & H23]

SMILES: CN(C)CCON=C(/C=C/c1ccc(O)cc1)c1ccccc1F [SR 46349B, Trans 1-N,N-dimethylaminoethoxyimino 1-(2-fluorophenyl)-3-(4-hydroxyphenyl)2-propene hemifumarate]
5-HT2 antagonist activity [2]: potent 5-HT2 antagonist
plasma concentration compared with any single metabolite [3]: higher than any single metabolite, except at the 48 hr time point

SMILES: CN(C)CCON=C(/C=C/c1ccc(O)cc1)c1ccccc1F [SR 46349]
half-life ([4]; human, po, 30 mg, single oral 30 mg, mean (±SD), read-out: terminal elimination half-life of SR 46349 (converted)): ~23 h
Cmax ([4]; human, single oral 30 mg 14C-SR 46349B, healthy male volunteers, capsule, fasted, read-out: Cmax of SR 46349 in plasma, mean (±SD)): 50 ng/mL
AUC ([4]; human, single oral 30 mg, read-out: mean plasma AUC for SR 46349 (±SD), as restated in the discussion): 1200 ng·h/mL
terminal elimination half-life of SR 46349 ([4]; single oral 30 mg, mean (±SD)): 22.9 (±7.3) hr
extent and pathways of metabolism ([1]; result in words, human): extensively metabolized; also recorded: N-oxidation, N-demethylation, sulfation and glucuronidation; also recorded: oxidation of SR 46349 (N-oxidation and N-demethylation) appears to be the major mechanism of metabolic clearance
percentage of excreted radioactivity [1]: approximately 6%
plasma concentration compared with any single metabolite [3]: always higher than any individual metabolite

maximal plasma concentrations of radioactivity relative to plasma concentrations of SR 46349 ([5]; at similar tmax values, radioactivity / SR 46349): approximately 3 times
AUC of plasma radioactivity relative to mean plasma AUC for SR 46349 ([5]; radioactivity / SR 46349): approximately 11 times
Cmax of plasma radioactivity, mean (±SD) ([5]; single oral 30 mg 14C-SR 46349B, total radioactivity): 0.16 (±0.02) mg eq/L
AUC of plasma radioactivity, mean (±SD) ([5]; single oral 30 mg, total radioactivity): 13.7 (±2. 1) mg eq.circle-solid.hr/L
cumulative urinary excretion of radioactivity, mean (±SD) [6]: 70.3 (±4.6) %
cumulative urinary excretion of radioactivity, range ([6]; range over subjects): 63.1 to 77.1%
cumulative fecal excretion of radioactivity, mean (±SD) [7]: 21.6 (±3.5) %
cumulative fecal excretion of radioactivity, range ([7]; range over subjects): 16.4 to 26.5%
SMILES: CN(C)CCO/N=[14C](/C=C/c1ccc(O)cc1)c1ccccc1F [^14 C-SR 46349B]
